Source: ChEMBL document CHEMBL1131095, “Derivation of a three-dimensional pharmacophore model of substance P antagonists bound to the neurokinin-1 receptor” (J Med Chem, 1998)
pIC50: −log10 of the molar value.

Biological target: T1, Substance-P receptor (Homo sapiens, UniProt P25103)
Assay: Binding affinity was measured against the Tachykinin receptor 1 in human IM-9 cells using [125I]Bolton-Hunter SP.
Type: cell-based

T1 sequence (P25103 whole entry): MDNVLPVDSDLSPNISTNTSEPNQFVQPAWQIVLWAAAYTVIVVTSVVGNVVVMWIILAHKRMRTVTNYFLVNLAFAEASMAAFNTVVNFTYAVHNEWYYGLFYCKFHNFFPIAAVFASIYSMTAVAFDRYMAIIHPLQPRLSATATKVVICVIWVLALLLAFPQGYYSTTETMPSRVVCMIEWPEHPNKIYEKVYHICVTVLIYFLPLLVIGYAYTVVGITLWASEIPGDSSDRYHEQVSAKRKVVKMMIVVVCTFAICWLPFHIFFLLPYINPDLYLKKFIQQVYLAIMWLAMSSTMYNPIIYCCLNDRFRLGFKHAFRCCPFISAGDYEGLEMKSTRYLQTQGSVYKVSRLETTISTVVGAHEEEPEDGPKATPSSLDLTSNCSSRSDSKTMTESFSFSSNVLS

SMILES	pIC50
COc1ccccc1CN1CCN2CCC[C@H]1[C@@H]2c1ccccc1	9.44
COc1ccccc1CN[C@H]1C2CC3CCCC2CN3[C@H]1C(c1ccccc1)c1ccccc1 (some centres undefined)	8.72
c1ccc(CN[C@H]2C3C4CCCC3CN(C4)[C@H]2C(c2ccccc2)c2ccccc2)cc1	6.64
COc1ccccc1[C@@H]1CC[C@@]2(CCCN[C@H]2c2ccccc2)NC1	8.70
COc1ccccc1[C@@H]1CC[C@@]2(CCCN[C@H]2c2ccccc2)N1	5.00
c1ccc(CN[C@H]2C3CC4CCCC(C3)N4[C@H]2C(c2ccccc2)c2ccccc2)cc1	6.77
COc1ccccc1CN1CN2CCC[C@H]1[C@@H]2c1ccccc1	9.21
c1ccc(CN[C@H]2C3CC4CCC(C3)N4[C@H]2C(c2ccccc2)c2ccccc2)cc1	7.17
COc1ccccc1CN[C@H]1C2CC3CCC(C2)N3[C@H]1C(c1ccccc1)c1ccccc1	9.04

Biological target: T1, Substance-P receptor
Assay: Binding affinity was measured against the Tachykinin receptor 1 in CHO-expressed hNK1 using [125I]SP.

SMILES	pIC50
FC(F)(F)c1cc(CO[C@H]2CCCN(Cc3cnc[nH]3)[C@H]2c2ccccc2)cc(C(F)(F)F)c1	9.00
FC(F)(F)c1cc(COCC2(c3ccccc3)CCCNC2)cc(C(F)(F)F)c1 (centres undefined)	7.70
O=C1O[C@@H](Cc2c[nH]c3ccccc23)C(=O)N1Cc1cc(C(F)(F)F)cc(C(F)(F)F)c1	7.59
FC(F)(F)c1cc(CN[C@H]2C3CCN(CC3)[C@H]2C(c2ccccc2)c2ccccc2)cc(C(F)(F)F)c1	8.70
c1ccc(CO[C@H]2C3CCN(CC3)[C@H]2C(c2ccccc2)c2ccccc2)cc1	7.12
FC(F)(F)c1cc(CO[C@H]2CCCN(Cc3nnn[nH]3)[C@H]2c2ccccc2)cc(C(F)(F)F)c1	7.40
c1ccc(CN[C@H]2C3CCN(CC3)[C@H]2C(c2ccccc2)c2ccccc2)cc1	7.54
COc1ccccc1CN[C@H]1C2CCN(CC2)[C@H]1Cc1ccccc1	6.63
FC(F)(F)c1cc(CO[C@H]2CCCN(Cc3ncc[nH]3)[C@H]2c2ccccc2)cc(C(F)(F)F)c1	9.30
FC(F)(F)c1cc(CO[C@H]2CCCN(Cc3nnco3)[C@H]2c2ccccc2)cc(C(F)(F)F)c1	9.00
O=c1[nH]nc(CN2CCC[C@H](OCc3cc(C(F)(F)F)cc(C(F)(F)F)c3)[C@@H]2c2ccccc2)[nH]1	10.00
FC(F)(F)c1cc(CO[C@H]2CCCN(Cc3nnc[nH]3)[C@H]2c2ccccc2)cc(C(F)(F)F)c1	9.70
Cc1cc(C)cc(CO[C@H]2C3CCN(CC3)[C@H]2C(c2ccccc2)c2ccccc2)c1 [L-706125]	6.53
CC(=O)N[C@@H](Cc1c[nH]c2ccccc12)C(=O)OCc1cc(C)cc(C)c1 [L-708568]	7.28
FC(F)(F)c1cc(CO[C@H]2C3CCN(CC3)[C@H]2C(c2ccccc2)c2ccccc2)cc(C(F)(F)F)c1 [L-709210]	6.71
CC(=O)N[C@@H](Cc1csc2ccccc12)C(=O)OCc1cc(C(F)(F)F)cc(C(F)(F)F)c1 [L-709400]	7.82

Other lines, results leading:

pIC50	SMILES
7.40	FC(F)(F)c1cc(CO[C@H]2CCCN(Cc3ccco3)[C@H]2c2ccccc2)cc(C(F)(F)F)c1
7.12	N[C@H](COCc1cccc(Cl)c1)C(c1ccccc1)c1ccccc1
7.09	Cc1cc(C)cc(COC[C@@H](Nc2ccccc2)C(c2ccccc2)c2ccccc2)c1
5.57	O=C1O[C@@H](Cc2c[nH]c3ccccc23)C(=O)N1Cc1cccc(C(F)(F)F)c1
9.00	FC(F)(F)c1cc(COCC2(c3ccccc3)CCCCN2)cc(C(F)(F)F)c1 (centres undefined)
9.40	CN(Cc1ccccc1)C(=O)CN1CCC[C@H](OCc2cc(C(F)(F)F)cc(C(F)(F)F)c2)[C@@H]1c1ccccc1
6.44	N[C@H](COCc1ccccc1)C(c1ccccc1)c1ccccc1

Biological target: T1, Substance-P receptor
Assay: Binding affinity was measured against the Tachykinin receptor 1 in human IM-9 cells using [3H]SP as ligand.
Type: cell-based

pIC50	SMILES
7.90	CN(Cc1ccccc1)C(=O)[C@H](Cc1ccc2ccccc2c1)NC(=O)[C@@H]1CCCC[C@@H]1NC(=O)c1c[nH]c2ccccc12
8.90	CN(Cc1ccccc1)C(=O)[C@H](Cc1ccc2ccccc2c1)NC(=O)C1(NC(=O)c2c[nH]c3ccccc23)CCCCC1
7.70	CN(C(=O)Cc1ccccc1)[C@H](Cc1ccc2ccccc2c1)NC(=O)C1(NC(=O)c2c[nH]c3ccccc23)CCCCC1
6.50	O=C(Cc1ccccc1)N[C@H](Cc1ccc2ccccc2c1)NC(=O)[C@@H]1CCCC[C@@H]1NC(=O)c1c[nH]c2ccccc12
6.90	CN(Cc1ccccc1)C(=O)[C@H](Cc1ccccc1)NC(=O)[C@@H]1CCCC[C@@H]1NC(=O)c1c[nH]c2ccccc12
5.90	CN(Cc1ccccc1)C[C@H](Cc1ccc2ccccc2c1)NC(=O)[C@@H]1CCCC[C@@H]1NC(=O)c1c[nH]c2ccccc12
8.62	COc1ccccc1CN[C@H]1[C@@H]2CCC[C@@H]2N[C@H]1c1ccccc1
